Experimental data taken from patent publication US20220089575A1, “FARNESOID X RECEPTOR AGONISTS AND USES THEREOF” (Metacrine, Inc., priority 2017, published 2022).

Each compound was assayed against T1, hFXR (Homo sapiens, UniProt Q96RI1) (assay: In Vitro FXR Assay (TK): TK-ECRE-luc reporter in transfected CV-1 cells). Details: 18 hrs, luminescence, maximum efficacy of <25% of the Fexarmine control classified as '+'.
T1 construct: expressed in transfected cells; host or cells: CV-1 cells
T1 sequence (Q96RI1 1-486): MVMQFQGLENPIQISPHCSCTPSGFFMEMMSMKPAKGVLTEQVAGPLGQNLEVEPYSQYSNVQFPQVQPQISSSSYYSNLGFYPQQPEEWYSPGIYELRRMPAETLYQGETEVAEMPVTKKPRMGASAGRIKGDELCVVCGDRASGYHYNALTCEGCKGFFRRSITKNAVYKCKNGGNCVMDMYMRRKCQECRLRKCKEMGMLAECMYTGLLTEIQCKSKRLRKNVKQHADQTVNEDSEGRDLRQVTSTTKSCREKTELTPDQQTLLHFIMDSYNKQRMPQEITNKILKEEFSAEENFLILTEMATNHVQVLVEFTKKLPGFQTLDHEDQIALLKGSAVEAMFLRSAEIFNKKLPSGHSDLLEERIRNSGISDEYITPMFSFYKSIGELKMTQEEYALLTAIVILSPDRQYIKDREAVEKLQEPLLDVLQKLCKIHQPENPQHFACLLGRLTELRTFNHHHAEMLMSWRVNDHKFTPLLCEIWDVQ
T1 sequence (P19793 1-462 partner): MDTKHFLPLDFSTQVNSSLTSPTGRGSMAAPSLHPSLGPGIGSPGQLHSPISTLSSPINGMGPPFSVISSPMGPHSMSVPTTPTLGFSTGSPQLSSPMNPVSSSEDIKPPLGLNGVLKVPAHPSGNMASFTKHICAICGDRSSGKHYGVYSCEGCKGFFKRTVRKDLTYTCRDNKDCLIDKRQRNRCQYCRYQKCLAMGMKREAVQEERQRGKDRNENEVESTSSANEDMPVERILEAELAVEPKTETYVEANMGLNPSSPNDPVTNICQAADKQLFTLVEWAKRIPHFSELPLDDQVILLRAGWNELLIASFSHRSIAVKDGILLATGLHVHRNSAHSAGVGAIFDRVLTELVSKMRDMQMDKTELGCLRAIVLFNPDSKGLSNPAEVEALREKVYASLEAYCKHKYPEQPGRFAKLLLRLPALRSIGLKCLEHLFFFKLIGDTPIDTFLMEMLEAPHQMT
Format: cell-based
Protocol: CV-1 cells were seeded at a density of 2,000,000 cells in a T175 flask with DMEM+10% charcoal double-stripped FBS and incubated at 37° C. in 5% CO2 for 18 h (O/N).
After 18 h of incubation, the medium in the T175 flask was changed with fresh DMEM+10% charcoal super-stripped serum. In a polypropylene tube, 2500 μL OptiMEM (Life Technologies, Cat #31985-062) was combined with expression plasmids for hFXR, hRXR, TK-ECRE-luc and pCMX-YFP. The tube was then briefly vortexed and incubated at room temperature for 5 minutes. Transfection reagent (X-tremeGENE HP from Roche, Cat #06 366 236 001) was added to the OptiMEM/plasmid mixture vortexed and incubated at room temperature for 20 minutes. Following incubation, the transfection reagent/DNA mixture complex was added to cells in the T175 flask and the cells were incubated at 37° C. in 5% CO2 for 18 h (O/N).
Compounds were serially diluted in DMSO and added to transfected CV-1 cells. The cells were then incubated for 18 hrs. The next day cells were lysed and examined for luminescence.

EC50, ≤ 250 nM:
CNC(=O)O[C@H]1CC[C@H](C(=O)N(C[C@H]2CC[C@H](c3ccc(OC)c(C)c3)CC2)c2cccc(-c3coc(C4CC4)n3)c2)CC1 [Compound 2.06, trans-4-((3-(2-Cyclopropyloxazol-4-yl)phenyl)((trans-4-(4-methoxy-3-methylphenyl)cyclohexyl)methyl)carbamoyl)cyclohexyl) methylcarbamate]
CNC(=O)O[C@H]1CC[C@H](C(=O)N(CC23CCC(c4ccc(OC)c(C)c4)(CC2)CC3)c2cccc(-c3coc(C4CC4)n3)c2)CC1 [Compound 2.07, 4-((3-(2-Cyclopropyloxazol-4-yl)phenyl)((4-(4-methoxy-3-methylphenyl)bicyclo[2.2.2]octan-1-yl)methyl)carbamoyl)cyclohexyl trans-methylcarbamate]
CNC(=O)O[C@H]1CC[C@H](C(=O)N(CC23CCC(c4ccc(OC)c(C)c4)(CC2)CC3)c2cccc(-c3cc(C4CC4)ns3)c2)CC1 [Compound 2.08, 4-((3-(3-Cyclopropylisothiazol-5-yl)phenyl)((4-(4-methoxy-3-methylphenyl)bicyclo[2.2.2]octan-1-yl)methyl)carbamoyl)cyclohexyl trans-methylcarbamate]
CNC(=O)O[C@H]1CC[C@H](C(=O)N(CC23CCC(c4ccc(N(C)C)nc4)(CC2)CC3)c2cccc(-c3coc(C4CC4)n3)c2)CC1 [Compound 3, 4-((3-(2-Cyclopropyloxazol-4-yl)phenyl)((4-(6-(dimethylamino)pyridin-3-yl)bicyclo[2.2.2]octan-1-yl)methyl)carbamoyl)cyclohexyl trans-methylcarbamate]
CCNC(=O)O[C@H]1CC[C@H](C(=O)N(C[C@H]2CC[C@H](c3ccc(OC)c(C)c3)CC2)c2cccc(-c3cnn(C4CC4)c3)c2)CC1 [Compound 3.01, trans-4-((3-(1-Cyclopropyl-1H-pyrazol-4-yl)phenyl)((trans-4-(4-methoxy-3-methylphenyl)cyclohexyl)methyl)carbamoyl)cyclohexyl ethylcarbamate]
CNC(=O)O[C@H]1CC[C@H](C(=O)N(C[C@H]2CC[C@H](c3ccc(OC)c(C)n3)CC2)c2cccc(-c3cnn(C4CC4)c3)c2)CC1 [Compound 3.02, trans-4-((3-(1-Cyclopropyl-1H-pyrazol-4-yl)phenyl)((trans-4-(5-methoxy-6-methylpyridin-2-yl)cyclohexyl)methyl)carbamoyl)cyclohexyl methylcarbamate]
CNC(=O)O[C@H]1CC[C@H](C(=O)N(CC23CCC(c4ccc(N(C)C)nc4)(CC2)CC3)c2cccc(-c3cnn(C4CC4)c3)c2)CC1 [Compound 3.03, 4-((3-(1-Cyclopropyl-1H-pyrazol-4-yl)phenyl)((4-(6-(dimethylamino)pyridin-3-yl)bicyclo[2.2.2]octan-1-yl)methyl)carbamoyl)cyclohexyl trans-methylcarbamate]
CNC(=O)O[C@H]1CC[C@H](C(=O)N(C[C@H]2CC[C@H](c3ccc(OC)c(C)c3)CC2)c2cc(-c3cnn(C4CC4)c3)ccn2)CC1 [Compound 3.04, trans-4-((4-(1-Cyclopropyl-1H-pyrazol-4-yl)pyridin-2-yl)((trans-4-(4-methoxy-3-methylphenyl)cyclohexyl)methyl)carbamoyl)cyclohexyl methylcarbamate]
CNC(=O)O[C@H]1CC[C@H](C(=O)N(C[C@H]2CC[C@H](c3ccc(N(C)C)nc3)CC2)c2cccc(-c3coc(C4CC4)n3)c2)CC1 [Compound 3.05, trans-4-((3-(2-Cyclopropyloxazol-4-yl)phenyl)((trans-4-(6-(dimethylamino)pyridine-3-yl)cyclohexyl)methyl)carbamoyl)cyclohexyl methylcarbamate]
COc1ccc([C@H]2CC[C@H](CN(c3cccc(-c4cnn(C5CC5)c4)c3)C(=O)[C@H]3CC[C@H](OC(=O)NCCO)CC3)CC2)cc1C [Compound 4, trans-4-((3-(1-Cyclopropyl-1H-pyrazol-4-yl)phenyl)((trans-4-(4-methoxy-3-methylphenyl)cyclohexyl)methyl)carbamoyl)cyclohexyl (2-hydroxyethyl)carbamate]
COc1ccc([C@H]2CC[C@H](CN(c3cccc(-c4cnc(C5CC5)s4)c3)C(=O)[C@H]3CC[C@H](OC(=O)NCCO)CC3)CC2)cc1C [Compound 4.01, trans-4-((3-(2-Cyclopropylthiazol-5-yl)phenyl)((trans-4-(4-methoxy-3-methylphenyl)cyclohexyl)methyl)carbamoyl)cyclohexyl (2-hydroxyethyl)carbamate]
COc1ccc(C23CCC(CN(c4cccc(-c5cnc(C6CC6)s5)c4)C(=O)[C@H]4CC[C@H](OC(=O)NCCO)CC4)(CC2)CC3)cc1C [Compound 4.02, 4-((3-(2-Cyclopropylthiazol-5-yl)phenyl)((4-(4-methoxy-3-methylphenyl)bicyclo[2.2.2]octan-1-yl)methyl)carbamoyl)cyclohexyl (2-hydroxyethyl)trans-carbamate]
CN(C)c1ccc(C23CCC(CN(c4cccc(-c5cnc(C6CC6)s5)c4)C(=O)[C@H]4CC[C@H](OC(=O)NCCO)CC4)(CC2)CC3)cn1 [Compound 4.03, 4-((3-(2-Cyclopropylthiazol-5-yl)phenyl)((4-(6-(dimethylamino)pyridin-3-yl)bicyclo[2.2.2]octan-1-yl)methyl)carbamoyl)cyclohexyl (2-hydroxyethyl)trans-carbamate]
COc1ccc(C23CCC(CN(c4cccc(-c5cnn(C6CC6)c5)c4)C(=O)[C@H]4CC[C@H](OC(=O)NCCO)CC4)(CC2)CC3)cc1C [Compound 4.04, 4-((3-(1-Cyclopropyl-1H-pyrazol-4-yl)phenyl)((4-(4-methoxy-3-methylphenyl)bicyclo[2.2.2]octan-1-yl)methyl)carbamoyl)cyclohexyl (2-hydroxyethyl)trans-carbamate]
COc1ccc([C@H]2CC[C@H](CN(c3cccc(-c4cnn(C5CC5)c4)c3)C(=O)[C@H]3CC[C@H](OC(=O)NC(C)C)CC3)CC2)cc1C [Compound 4.05, trans-4-((3-(1-Cyclopropyl-1H-pyrazol-4-yl)phenyl)((trans-4-(4-methoxy-3-methylphenyl)cyclohexyl)methyl)carbamoyl)cyclohexyl isopropylcarbamate]
COc1ccc([C@H]2CC[C@H](CN(c3cccc(-c4cnn(C5CC5)c4)c3)C(=O)[C@H]3CC[C@H](OC(=O)N4CC(OC)C4)CC3)CC2)cc1C [Compound 4.06, trans-4-((3-(1-Cyclopropyl-1H-pyrazol-4-yl)phenyl)((trans-4-(4-methoxy-3-methylphenyl)cyclohexyl)methyl)carbamoyl)cyclohexyl 3-methoxyazetidine-1-carboxylate]
COc1ccc([C@H]2CC[C@H](CN(c3cccc(-c4cnn(C5CC5)c4)c3)C(=O)[C@H]3CC[C@H](OC(=O)N4CCOCC4)CC3)CC2)cc1C [Compound 4.07, trans-4-((3-(1-Cyclopropyl-1H-pyrazol-4-yl)phenyl)((trans-4-(4-methoxy-3-methylphenyl)cyclohexyl)methyl)carbamoyl)cyclohexyl morpholine-4-carboxylate]
COc1ccc([C@H]2CC[C@H](CN(c3cccc(-c4cnn(C5CC5)c4)c3)C(=O)[C@H]3CC[C@H](OC(=O)NC4CC4)CC3)CC2)cc1C [Compound 4.08, trans-4-((3-(1-Cyclopropyl-1H-pyrazol-4-yl)phenyl)((trans-4-(4-methoxy-3-methylphenyl)cyclohexyl)methyl)carbamoyl)cyclohexyl cyclopropylcarbamate]
